Experimental data published in the NIST ThermoML archive (doi:10.1016/j.jct.2019.03.022).

Settings: Liquid, Frequency=5 MHz, Pulse-echo method

Cc1ccc(C)cc1 [1,4-dimethylbenzene]
Settings	speed of sound [m/s]
305.93 K, 3690 kPa	1296.5
305.97 K, 40270 kPa	1464.5
305.98 K, 5250 kPa	1304.4
305.98 K, 45030 kPa	1483.5
305.98 K, 50870 kPa	1506
305.99 K, 1000 kPa	1281.8
305.99 K, 35160 kPa	1443.6
306 K, 4900 kPa	1302.5
306 K, 13840 kPa	1347.7
306 K, 30490 kPa	1423.8
306.02 K, 2050 kPa	1287.2
306.03 K, 9400 kPa	1325.6
306.05 K, 6960 kPa	1312.9
306.06 K, 19900 kPa	1376.2
306.07 K, 2050 kPa	1287.1
306.07 K, 16500 kPa	1360.1
306.07 K, 24630 kPa	1397.8
306.1 K, 29650 kPa	1419.7
306.14 K, 26930 kPa	1407.8
306.18 K, 28370 kPa	1413.9
323.47 K, 41260 kPa	1410.2
323.47 K, 49810 kPa	1445.3
323.47 K, 59650 kPa	1483.5
323.48 K, 34540 kPa	1381.1
323.48 K, 54770 kPa	1464.8
323.48 K, 55430 kPa	1467.4
323.49 K, 46870 kPa	1433.4
323.51 K, 49380 kPa	1443.5
323.51 K, 65910 kPa	1506.7
323.52 K, 30290 kPa	1361.8
323.53 K, 11470 kPa	1269.8
323.54 K, 1060 kPa	1211.5
323.54 K, 6060 kPa	1240.3
323.54 K, 44230 kPa	1422.4
323.54 K, 45010 kPa	1425.6
323.55 K, 18570 kPa	1306.1
323.56 K, 210 kPa	1206.4
323.57 K, 490 kPa	1208.1
323.57 K, 2600 kPa	1220.4
323.57 K, 10070 kPa	1262.1
323.57 K, 20900 kPa	1317.5
323.57 K, 39580 kPa	1402.7
323.57 K, 44830 kPa	1424.7
323.58 K, 5070 kPa	1234.5
323.58 K, 6090 kPa	1240.3
323.58 K, 11110 kPa	1267.7
323.58 K, 34830 kPa	1382
323.59 K, 7490 kPa	1248
323.59 K, 17890 kPa	1302.5
323.59 K, 25130 kPa	1337.7
323.59 K, 30210 kPa	1361.3
323.6 K, 15130 kPa	1288.6
335.95 K, 55000 kPa	1427.5
335.95 K, 65380 kPa	1467.9
335.96 K, 61040 kPa	1451.3
335.97 K, 50590 kPa	1409.6
335.98 K, 1230 kPa	1164
335.98 K, 2630 kPa	1172.6
335.98 K, 5600 kPa	1190.4
335.98 K, 45230 kPa	1387.1
335.99 K, 280 kPa	1158
335.99 K, 570 kPa	1159.8
335.99 K, 10300 kPa	1217.5
335.99 K, 20370 kPa	1271.4
336 K, 10270 kPa	1217.2
336 K, 24830 kPa	1293.8
336 K, 30890 kPa	1323
336 K, 34840 kPa	1341.2
336.01 K, 14980 kPa	1243.1
336.01 K, 20750 kPa	1273.3
336.02 K, 40670 kPa	1367.2
336.03 K, 41380 kPa	1370.3
336.05 K, 41270 kPa	1369.8
336.06 K, 31080 kPa	1323.6
348.25 K, 40 kPa	1108.8
348.27 K, 2120 kPa	1122.5
348.28 K, 4090 kPa	1135.2
348.29 K, 2590 kPa	1125.5
348.3 K, 2110 kPa	1122.3
348.32 K, 1270 kPa	1116.8
348.32 K, 8600 kPa	1162.9
348.32 K, 8900 kPa	1164.7
348.35 K, 10880 kPa	1176.3
348.36 K, 15220 kPa	1201.1
348.36 K, 20050 kPa	1227.6
348.37 K, 14620 kPa	1197.7
348.37 K, 60580 kPa	1413.4
348.39 K, 59820 kPa	1410.3
348.39 K, 64180 kPa	1427.6
348.4 K, 64670 kPa	1429.6
348.41 K, 59890 kPa	1410.6
348.42 K, 45170 kPa	1348.7
348.42 K, 49930 kPa	1369.4
348.42 K, 54750 kPa	1389.6
348.43 K, 29340 kPa	1275
348.43 K, 33900 kPa	1297.2
348.43 K, 39830 kPa	1324.8
348.45 K, 24930 kPa	1252.9
355.89 K, 12280 kPa	1158.2
355.92 K, 15640 kPa	1177.7
355.94 K, 920 kPa	1085.7
355.94 K, 20950 kPa	1207.3
355.95 K, 490 kPa	1082.6
355.95 K, 2620 kPa	1097
355.95 K, 25050 kPa	1229.2
355.95 K, 31130 kPa	1260.2
355.96 K, 10930 kPa	1149.9
355.98 K, 270 kPa	1081
355.98 K, 5370 kPa	1115.1
355.98 K, 65160 kPa	1410.3
356 K, 59390 kPa	1387.1
356.02 K, 41360 kPa	1308.9
356.02 K, 45060 kPa	1325.7
356.04 K, 54960 kPa	1368.5
356.05 K, 34600 kPa	1276.9
356.08 K, 50520 kPa	1349.5
373.53 K, 2520 kPa	1031.7
373.53 K, 5450 kPa	1052.5
373.54 K, 2530 kPa	1031.7
373.55 K, 950 kPa	1020.1
373.57 K, 44340 kPa	1271.8
373.58 K, 570 kPa	1017.1
373.58 K, 49640 kPa	1296.2
373.59 K, 240 kPa	1014.6
373.6 K, 10260 kPa	1084.6
373.6 K, 19750 kPa	1143.4
373.6 K, 29800 kPa	1199.1
373.6 K, 29850 kPa	1199.3
373.6 K, 35000 kPa	1226.1
373.61 K, 14920 kPa	1114.2
373.61 K, 59070 kPa	1337.5
373.62 K, 20290 kPa	1146.4
373.62 K, 39790 kPa	1249.8
373.62 K, 40800 kPa	1254.9
373.62 K, 58970 kPa	1337.1
373.63 K, 24920 kPa	1172.7
373.63 K, 54980 kPa	1319.8
373.64 K, 64880 kPa	1361.7
398.19 K, 37260 kPa	1168.3
398.2 K, 220 kPa	923.76
398.2 K, 29920 kPa	1127.9
398.2 K, 37270 kPa	1168.3
398.2 K, 40070 kPa	1182.9
398.2 K, 54810 kPa	1254.7
398.2 K, 60130 kPa	1278.8
398.21 K, 500 kPa	926.17
398.21 K, 34890 kPa	1155.4
398.21 K, 44950 kPa	1207.5
398.21 K, 64730 kPa	1299
398.22 K, 1040 kPa	930.76
398.22 K, 20010 kPa	1068.5
398.22 K, 24890 kPa	1098.6
398.23 K, 50040 kPa	1232.3
398.24 K, 5190 kPa	964.55
398.24 K, 15110 kPa	1036.5
398.24 K, 31220 kPa	1135.2
398.25 K, 2490 kPa	942.77
398.25 K, 10300 kPa	1002.9
398.25 K, 19720 kPa	1066.6
398.25 K, 31220 kPa	1135.2
398.26 K, 12650 kPa	1019.5
422.57 K, 5690 kPa	886.27
422.65 K, 2630 kPa	858.44
422.7 K, 14830 kPa	959.38
422.72 K, 550 kPa	838.3
422.72 K, 50170 kPa	1171.8
422.73 K, 190 kPa	834.7
422.73 K, 28590 kPa	1052.1
422.73 K, 54780 kPa	1194.6
422.74 K, 1230 kPa	844.88
422.74 K, 9190 kPa	915.48
422.74 K, 44830 kPa	1144.4
422.75 K, 780 kPa	840.37
422.75 K, 10020 kPa	922.14
422.75 K, 19940 kPa	995.75
422.75 K, 24810 kPa	1028.2
422.75 K, 29890 kPa	1060
422.75 K, 64580 kPa	1240.2
422.76 K, 59900 kPa	1218.7
422.77 K, 34850 kPa	1089.3
422.77 K, 40720 kPa	1122.3
446.94 K, 5130 kPa	800.91
446.99 K, 10180 kPa	848.37
446.99 K, 14830 kPa	887.97
447 K, 19890 kPa	927.32
447.01 K, 7300 kPa	821.88
447.02 K, 1020 kPa	756.94
447.02 K, 24900 kPa	963.22
447.03 K, 22500 kPa	946.32
447.07 K, 300 kPa	748.43
447.07 K, 580 kPa	751.73
447.08 K, 49880 kPa	1113.3
447.08 K, 64750 kPa	1187.3
447.09 K, 30510 kPa	1000.7
447.11 K, 54450 kPa	1137
447.12 K, 40150 kPa	1059.5
447.13 K, 35270 kPa	1030.4
447.13 K, 45010 kPa	1086.9
447.13 K, 59760 kPa	1163.3

Cc1ccccc1 [toluene]
Settings	speed of sound [m/s]
323.29 K, 10200 kPa	1253.2
323.32 K, 20480 kPa	1305.4
323.32 K, 20600 kPa	1305.9
323.34 K, 31540 kPa	1356.7
323.37 K, 44870 kPa	1413.5
323.38 K, 60790 kPa	1475.5
323.39 K, 60820 kPa	1475.5
373.82 K, 7570 kPa	1046.5
373.83 K, 2170 kPa	1007.9
373.83 K, 21270 kPa	1132.5
373.85 K, 35520 kPa	1209.3
373.87 K, 64470 kPa	1340.7
373.9 K, 50350 kPa	1280
422.93 K, 6580 kPa	863.73
422.98 K, 20740 kPa	974.49
423.01 K, 36450 kPa	1073.4
423.04 K, 56200 kPa	1176.9

O [water]
Settings	speed of sound [m/s]
306.13 K, 1030 kPa	1517.3
306.14 K, 4950 kPa	1524
306.15 K, 19980 kPa	1549.5
306.15 K, 59750 kPa	1616.5
306.16 K, 29980 kPa	1566.5
306.16 K, 39950 kPa	1583.3
306.16 K, 49950 kPa	1600.1
357.97 K, 20280 kPa	1593.1
357.99 K, 400 kPa	1553.7
358 K, 30380 kPa	1612.5
358 K, 40230 kPa	1630.9
358.01 K, 50080 kPa	1649
358.03 K, 59980 kPa	1666.8
420.93 K, 1180 kPa	1471.5
421.06 K, 20130 kPa	1520.6
421.12 K, 40030 kPa	1568.6
421.2 K, 59900 kPa	1613.1
